Experimental data from patent EP4122466A1 (priority 2021, dated 2023).
“Also recorded” adds a separate entry of the source.

Assays:
SARS-CoV-2 pseudovirus = assay type: cell-based
VSV*ΔG(Luc)-S virus = experiment: organism not typed; assay type: cell-based
[1] = tested on: Human Lung Tissue (HTL) cells
VSV.G virus = assay type: cell-based
SARS-CoV-2 = details: cited from earlier work

For `CN1CCN(c2ccc(C(=O)Nc3n[nH]c4ccc(Cc5cc(F)cc(F)c5)cc34)c(NC3CCOCC3)c2)CC1` [entrectinib], the “inhibition of virus infection” value (SARS-CoV-2 pseudovirus) was “dose-dependent inhibition of virus infection”, the EC50 (VSV*ΔG(Luc)-S virus) was < 1 µM and the cell death [1] was “without inducing significant cell death”. For the same molecule, the “inhibition of the VSV.G virus” value (VSV.G virus) was “partially inhibit; also recorded: demonstrated an antiviral effect”.

With `Cc1cccc(/C=N/Nc2cc(N3CCOCC3)nc(OCCc3ccccn3)n2)c1` [apilimod] the “inhibition of virus infection” value (SARS-CoV-2 pseudovirus) was “dose-dependent inhibition of virus infection”, the “decrease in infection rate” value (VSV*ΔG(Luc)-S virus) was “lower decrease in infection rate” and the infection rate (VSV*ΔG(Luc)-S virus) was 50%. For the same molecule, the “inhibition of the VSV.G virus” value (VSV.G virus) was “partially inhibit”.

For `Cc1cn(-c2cc(NC(=O)c3ccc(C)c(Nc4nccc(-c5cccnc5)n4)c3)cc(C(F)(F)F)c2)cn1` [nilotinib], the “inhibition of virus infection” value (SARS-CoV-2 pseudovirus) was “dose-dependent inhibition of virus infection”, the EC50 (VSV*ΔG(Luc)-S virus) was > 15 µM and the “inhibition of the VSV.G virus” value (VSV.G virus) was “partially inhibit”. The “in vitro activity against SARS-CoV-2” value (SARS-CoV-2) was “did show in vitro antiviral effect”.

For `Cc1ccc(NC(=O)c2ccc(CN3CCN(C)CC3)cc2)cc1Nc1nccc(-c2cccnc2)n1` [imatinib], the “in vitro activity against SARS-CoV-2” value (SARS-CoV-2) is given as “do not show antiviral efficacy”.
